# Laboratory results published in US6228870A, “Oxazolidinones useful as alpha 1a adrenoceptor antagonists” (Merck & Co., Inc., priority 1999, dated 2001).
# Tested on: human alpha 1b adrenergic receptor
# Test: Selective Binding Assay, alpha 1b (competition with [125I]-HEAT)
# Conditions: alpha 1a versus alpha 1b
# Method: Membranes prepared from stably transfected human alpha 1d and alpha 1b cell lines (ATCC […] and CRL 11139, respectively) were used to identify compounds that selectively bind to the human alpha 1a adrenergic receptor. These competition binding) reactions (total volume=200 μl) contained 50 mM Tris-HCl pH. 7.4, 5 mM EDTA, 150 mM NaCl, 100 pM [^125 I]-HEAT, membranes prepared from cell lines transfected with the respective alpha 1 subtype expression plasmid and increasing amounts of unlabeled ligand. Reactions were incubated at room temperature for one hour with shaking. Reactions were filtered onto Whatman GF/C glass fiber filters with a Inotec 96 well cell harvester. Filters were washed three times with ice cold buffer and bound radioactivity was determined (Ki).
row,selectivity in binding to alpha 1a receptors versus alpha 1b receptors,Structure (SMILES)
1,about 184 fold,"COC[C@@H]1OC(=O)N(C(=O)NCCCN2CCC(c3ccccc3C#N)CC2)[C@H]1c1ccc(F)c(F)c1 [Example 11, (4S,5R)-4-(3,4-Difluorophenyl)-5-methoxymethyl-2-oxo-oxazolidine-3-carboxylic acid {3-[4-(2-cyanophenyl)piperidin-1-yl]propyl}amide]"
2,about 453 fold,"COC[C@@H]1OC(=O)N(C(=O)NCCCN2CCC(c3ccc(F)cc3C#N)CC2)[C@H]1c1ccc(F)c(F)c1 [Example 13, (4S,5R)-4-(3,4-Difluorophenyl)-5-methoxymethyl-2-oxo-oxazolidine-3-carboxylic acid {3-[4-(2-cyano-4-fluorophenyl)piperidin-1-yl]propyl}amide]"
